Measurements published in ChEMBL document CHEMBL1145395, “De novo design of selective antibiotic peptides by incorporation of unnatural amino acids” (J Med Chem, 2007).
In brackets after ≈: the same amount, converted by molar mass. Activity calls are given as the source filed them. No cut-off for these calls is given here. Starred links: 1 amine or outer side, 2 acyl side, 3 side chain; linkers in the order of their positions; H or OH if unused. Non-standard residues stand in square brackets, D forms with d. Residues, ends and D or L forms follow the SMILES beside them. ξ: configuration not given here. *: point of attachment. Biotin = O=C1N[C@H]2[C@H](CS[C@H]2CCCCC(=O)*)N1; Pro(3ξ,4ξ-(CH2)4) = O=C(O)[C@H]1NCC2CCCCC21; Oic = O=C(O)[C@@H]1C[C@@H]2CCCC[C@@H]2N1; X1 = O=C([C@@H]1CN([*:1])C2CCCCC21)[*:2]; Tic = O=C(O)[C@@H]1Cc2ccccc2CN1

Assays:
[1] = Toxicity to mouse RBC assessed as hemolytic activity at 100 uM; format: cell-based, Erythrocyte; conditions: red blood cells, read-out: Activity
[2] = Toxicity to mouse RBC assessed as hemolytic activity at 25 uM; format: cell-based, Erythrocyte; conditions: red blood cells, read-out: Activity
Salmonella typhimurium = experiment: Antibacterial activity against Salmonella Typhimurium ATCC 13311; format: functional, Salmonella enterica subsp. enterica serovar Typhimurium; conditions: for MIC: Salmonella enterica
Staphylococcus aureus = experiment: Antibacterial activity against methicillin/gentamicin/tetracycline resistant Staphylococcus aureus ATCC 33592; format: functional
Mycobacterium = experiment: Antibacterial activity against Mycobacterium ranae ATCC 110; format: functional
Bacillus subtilis = experiment: Antibacterial activity against Bacillus subtilis ATCC 43223; format: functional

| SMILES | hemolysis at 100 µM [1] | hemolysis at 25 µM [2] | MIC (Salmonella typhimurium) | MIC (Staphylococcus aureus) | MIC (Mycobacterium) | MIC (Bacillus subtilis) | Activity (Salmonella typhimurium; Salmonella enterica subsp. enterica serovar Typhimurium) |
| --- | --- | --- | --- | --- | --- | --- | --- |
| CC(=O)NCC(=O)N[C@@H](Cc1ccccc1)C(=O)N[C@@H](Cc1ccccc1)C(=O)N1CC2CCCCC2[C@H]1C(=O)NCC(=O)N[C@@H](CCCCN)C(=O)N[C@@H](Cc1ccccc1)C(=O)N1CC2CCCCC2[C@H]1C(=O)NCC(=O)N[C@@H](Cc1ccccc1)C(=O)N[C@@H](Cc1ccccc1)C(=O)N1CC2CCCCC2[C@H]1C(=O)NCC(=O)N[C@@H](CCCCN)C(=O)N[C@@H](Cc1ccccc1)C(=O)N[C@@H](CCCCN)C(=O)N[C@@H](CCCCN)C(=O)N[C@@H](CCCCN)C(=O)N[C@@H](CCCCN)C(N)=O (some centres not stated) (Ac-GFF[Pro(3ξ,4ξ-(CH2)4)]GKF[Pro(3ξ,4ξ-(CH2)4)]GFF[Pro(3ξ,4ξ-(CH2)4)]GKFKKKK-NH2) | 27.3% | 8.9% |  |  |  |  |  |
| CC(=O)NCC(=O)N[C@@H](Cc1ccccc1)C(=O)NCC(=O)N1CC2CCCCC2[C@H]1C(=O)NCC(=O)N[C@@H](CCCCN)C(=O)NCC(=O)N1CC2CCCCC2[C@H]1C(=O)NCC(=O)N[C@@H](Cc1ccccc1)C(=O)NCC(=O)N1CC2CCCCC2[C@H]1C(=O)NCC(=O)N[C@@H](CCCCN)C(=O)NCC(=O)N[C@@H](CCCCN)C(=O)N[C@@H](CCCCN)C(=O)N[C@@H](CCCCN)C(=O)N[C@@H](CCCCN)C(N)=O (some centres not stated) (Ac-GFG[Pro(3ξ,4ξ-(CH2)4)]GKG[Pro(3ξ,4ξ-(CH2)4)]GFG[Pro(3ξ,4ξ-(CH2)4)]GKGKKKK-NH2) | 3.3% | 3.3% |  |  |  |  |  |
| NCCCC[C@H](NC(=O)[C@H](CCCCN)NC(=O)[C@H](CCCCN)NC(=O)[C@H](CCCCN)NC(=O)[C@@H]1Cc2ccccc2CN1C(=O)[C@H](CCCCN)NC(=O)CNC(=O)[C@@H]1C[C@@H]2CCCC[C@@H]2N1C(=O)[C@@H]1Cc2ccccc2CN1C(=O)[C@H](Cc1ccccc1)NC(=O)CNC(=O)[C@@H]1C[C@@H]2CCCC[C@@H]2N1C(=O)[C@@H]1Cc2ccccc2CN1C(=O)[C@H](CCCCN)NC(=O)CNC(=O)[C@@H]1C[C@@H]2CCCC[C@@H]2N1C(=O)[C@@H]1Cc2ccccc2CN1C(=O)[C@H](Cc1ccccc1)NC(=O)CNC(=O)CCCC[C@@H]1SC[C@@H]2NC(=O)N[C@@H]21)C(N)=O (Biotin-GF[Tic][Oic]GK[Tic][Oic]GF[Tic][Oic]GK[Tic]KKKK-NH2) |  |  | 30 µM (≈ 78.8 µg/mL) | 3 µM (≈ 7.88 µg/mL) | 10 µM (≈ 26.3 µg/mL) | 1 µM (≈ 2.63 µg/mL) |  |
| NCCCC[C@H](NC(=O)[C@H](CCCCN)NC(=O)[C@H](CCCCN)NC(=O)[C@H](CCCCN)NC(=O)[C@@H]1Cc2ccccc2CN1C(=O)[C@H](CCCCN)NC(=O)CNC(=O)[C@@H]1C[C@@H]2CCCC[C@@H]2N1C(=O)[C@@H]1Cc2ccccc2CN1C(=O)[C@H](Cc1ccccc1)NC(=O)CNC(=O)[C@@H]1C[C@@H]2CCCC[C@@H]2N1C(=O)[C@@H]1Cc2ccccc2CN1C(=O)[C@H](CCCCN)NC(=O)CNC(=O)[C@@H]1C[C@@H]2CCCC[C@@H]2N1C(=O)[C@@H]1Cc2ccccc2CN1C(=O)[C@H](Cc1ccccc1)NC(=O)CN)C(N)=O (H-GF[Tic][Oic]GK[Tic][Oic]GF[Tic][Oic]GK[Tic]KKKK-NH2) |  |  | 3 µM (≈ 7.2 µg/mL) | 10 µM (≈ 24 µg/mL) | 10 µM (≈ 24 µg/mL) | 1 µM (≈ 2.4 µg/mL) |  |
| CC(C)C[C@H](NC(=O)[C@@H](N)CCCCN)C(=O)N1Cc2ccccc2C[C@H]1C(=O)N1C[C@@H](C(=O)N[C@@H](CCCCN)C(=O)N2Cc3ccccc3C[C@H]2C(=O)N2C[C@@H](C(=O)N[C@@H](Cc3ccccc3)C(=O)N3Cc4ccccc4C[C@H]3C(=O)N3C[C@@H](C(=O)N[C@@H](CCCCN)C(=O)N4Cc5ccccc5C[C@H]4C(=O)N4C[C@@H](C(=O)N[C@@H](Cc5ccccc5)C(=O)N5Cc6ccccc6C[C@H]5C(=O)N5C[C@@H](C(=O)N[C@@H](CCCCN)C(=O)N6Cc7ccccc7C[C@H]6C(=O)N6C[C@@H](C(=O)N[C@@H](CCCCN)C(=O)N[C@@H](CCCNC(=N)N)C(N)=O)C7CCCCC76)C6CCCCC65)C5CCCCC54)C4CCCCC43)C3CCCCC32)C2CCCCC21 (some centres not stated) (H-KL[Tic][X1]K[Tic][X1]F[Tic][X1]K[Tic][X1]F[Tic][X1]K[Tic][X1]KR-NH2) | 63% |  |  | 10 µM (≈ 30.8 µg/mL) | 30 µM (≈ 92.5 µg/mL) | 1 µM (≈ 3.08 µg/mL) | inactive |
